What was measured:
TNFα = TNFα (Homo sapiens, UniProt P01375); assay: Fluorescence probed thermal denaturation assay (Thermofluor) of TNFα; format: binding; settings: TNFα + 5% DMSO + compound
Protocol: A fluorescence probed thermal denaturation assay was performed to assess the effect of the compounds on the thermal stability of TNFα as a measure of compound binding. The reaction mix contained 5 μl of 30×SYPRO® Orange dye (Invitrogen) and 5 μl of TNFα (at 1.0 mg/ml), 37.5 μl PBS, pH 7.4 and 2.5 μl of compound (at 2 mM in DMSO). 10 μl of the mix was dispensed in quadruplicate into a 384 PCR optical well plate and was run on a 7900HT Fast Real-Time PCR System ([…]). PCR System heating device was set at 20° C. to 99° C. with a ramp rate of 1.1° C./min; fluorescence changes in the wells were monitored by a Charge-coupled device (CCD). The fluorescence intensity increase was plotted as a function of temperature and the Tm calculated as the midpoint of this denaturation curve (determined as the point of inflection) (Table 1).
Thermofluor measures the change of melting temperature (Tm) of TNFα due to compound either stabilising or disrupting the protein.

TNFα trimer = TNFα trimer (Homo sapiens, UniProt P01375); assay: Mass spectrometric analysis of compound binding to and stabilisation of TNFα trimer
Sequence of TNFα trimer (P01375 77-233 limits assumed): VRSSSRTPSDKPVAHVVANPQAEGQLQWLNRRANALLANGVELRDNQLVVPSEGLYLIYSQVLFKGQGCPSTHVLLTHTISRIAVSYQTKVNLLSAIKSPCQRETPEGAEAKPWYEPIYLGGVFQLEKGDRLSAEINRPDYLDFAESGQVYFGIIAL
Protocol: Mass spectrometry was typically performed using a Waters LCT-premier Time-of-Flight mass spectrometer or a Waters SynaptG2 Q-TOF mass spectrometer. Samples were introduced using an Advion Triversa Nanomate nanoflow infusion device which replaces the conventional spectrometer source, sample injection was via an “A” series chip with […] nozzle size at a nominal flow rate of 100 nl/min. Further modifications to the Waters LCT-premier Time-of-Flight mass spectrometer include a customised source cooling device allowing precise control of the source temperature and a commercial pressure regulation device giving precise control over the vacuum conditions in the source region. Together these modifications help retain the TNFα trimer in a native, folded conformation and facilitate the detection of complexes formed with test compounds of weak affinities.
Ions were generated using standard positive ion electrospray conditions resulting in multiple charging of TNFα.
Mass spectrometry is very sensitive to the buffer salts present in the protein sample. Typical buffer salts such as potassium or sodium phosphates have a severely detrimental affect on ionisation. Accordingly protein samples were pre-treated to remove these salts using a Zeba desalt spin column, the protein being exchanged into a mass spectrometry compatible buffer system, typically 50 mM Ammonium Acetate at pH 6.8.
Typically the test compounds were presented as 10 mM DMSO stock solutions such that when they are incubated with TNFα in solution the final DMSO concentration is 5%. […] This is evidenced by the changes in the number of charges acquired by the protein under the various conditions described.
Test compounds were prepared as 10 mM solutions in dimethylsulphoxide (DMSO). Therefore, it was necessary to establish the effect of DMSO on the native TNFα trimer in the absence of a test compound. DMSO was added to an aqueous solution of TNFα trimer to give a final concentration of 5% v/v and the mass spectrum acquired.
The compound of formula (1) was added to a solution containing TNFα and 5% v/v DMSO and the mass spectrum acquired.
Further evidence for the stabilization of the trimeric form of TNFα by the test compounds was obtained from analyzing the samples under harsher ionization conditions that tend to favour breakdown of the native trimeric form into monomers.
Incubation of a library of test compounds, including the compound of formula (1) with TNFα was monitored by mass spectrometry under soft ionization conditions. […] This confirms that the test compounds, including the compound of formula (1), have a different mode of action to known compounds, which stabilize the dimeric form of TNFα.
A species of lower molecular weight (˜473 Da appears to bind at less than 5% occupancy). C87 has a molecular weight of 503 Da.

[1] = tested on: TNFα stimulated neutrophil recruitment into the peritoneal cavity; assay: Neutrophil recruitment in mice, compound given orally before i.p. hTNFα; format: in vivo, Balb/c mice
Protocol: In a further experiment, mice were treated with hTNFα ([…]) and the compound of formula (1) was administered orally (p.o.).
The compound of formula (1) was made into a suspension in 1% methylcellulose vehicle using a covaris machine.
An anti-human TNFα monoclonal antibody (anti-hTNFα, UCB) was also utilised as a positive control in this study.
Ten male Balb/c mice were used per group except in the group that received anti-hTNFα for which 4 mice were used.
All mice were killed by cervical dislocation two hours post-injection of hTNFα (t=2 h) and the peritoneal cavity was lavaged and neutrophil numbers measured as described above.

m-TNFα = biological target: T1, m-TNFα (Mus musculus, UniProt P06804); assay: Monomer exchange in TNFα trimers by mass spectrometry, compound pre-incubated with mouse TNFα; format: binding; settings: for off-rate from m-TNFα: 1:1 complex with m-TNFα mixed with h-TNFα; for cross species monomer subunit exchange: compound preincubated with m-TNFα, then h-TNFα added
T1 sequence (P06804 80-235 limits assumed): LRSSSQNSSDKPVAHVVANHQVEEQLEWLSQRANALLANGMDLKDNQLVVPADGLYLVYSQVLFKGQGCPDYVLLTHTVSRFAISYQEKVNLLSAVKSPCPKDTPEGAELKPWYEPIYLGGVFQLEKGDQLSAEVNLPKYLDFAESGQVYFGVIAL
Protocol: Human and mouse homotrimers of TNFα (H3 and M3 respectively) were incubated together and aliquots of the solution monitored by mass spectrometry appearance of the cross species heterotrimers. The mass spectrometric analysis confirmed that monomer exchange between native TNFα trimers was able to occur in solution. The exchange rate was slow and was monitored over a course of 4 hours before full equilibration was achieved (data not shown). The mechanism is unknown, although is it unlikely to involve formation of the dimeric forms as none of these were observed. Monomer exchange is likely to be occurring between pure human and mouse trimers, the mixing of mouse and human trimers simply makes this exchange visible by mass spectrometry.
The experiment was then repeated in reverse. Excess compound of formula 1 was incubated with Mouse TNFα, the excess compound of formula (1) was then removed. Mass Spectral analysis confirmed that a 1:1 complex had been formed between the compound of formula (1) and m-TNFα. Human TNFα was now added to this sample which was then subjected to mass spectral analysis over a number of hours. […] In addition there was evidence of formation of the ligated human homotrimer (H3L), the unligated mouse homotrimer (M3) and for unbound compound of formula (1) (L). […] Once this complex (M3L) has dissociated, monomer subunit exchange between the H3 and M3 species proceeds and the liberated ligand is then able to form complexes with all 4 trimer species present in solution.

TNFα and TNF-R = TNFα and TNF-R (Homo sapiens, UniProt P01375); assay: LC-MS analysis of size exclusion fractions of TNFα, TNF-R and compound; format: binding; settings: compound added before or after TNFα/TNF-R complex formation
Sequence of TNFα and TNF-R (P01375 77-233 limits assumed): as the sequence (P01375 77-233 limits assumed) above
Sequence of TNFα and TNF-R (P19438 30-211 partner limits assumed): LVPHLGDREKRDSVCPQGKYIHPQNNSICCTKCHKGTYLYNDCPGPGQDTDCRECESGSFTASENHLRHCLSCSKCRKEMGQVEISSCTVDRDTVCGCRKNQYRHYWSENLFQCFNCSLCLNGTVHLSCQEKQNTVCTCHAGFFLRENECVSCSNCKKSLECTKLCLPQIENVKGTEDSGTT
Protocol: Fractions from size exclusion chromatographic separation of mixtures of TNFα, TNF-R and the compound of formula (1) were analysed by liquid chromatography-mass spectrometry (LC-MS). Two samples were prepared for size exclusion chromatography.

Sequence of TNFα (P01375 77-233 limits assumed): as the sequence (P01375 77-233 limits assumed) above

Structure (SMILES)	Tm difference (=(TNF + cpd) − (TNF + DMSO)) (TNFα)	stabilisation of trimeric TNFα (charge state envelope) (TNFα trimer; 5% v/v DMSO, soft ionisation)	quantity of TNFα monomer detected (TNFα trimer; harsher ionization conditions, data not shown)	binding to the monomeric form of TNFα (TNFα trimer; soft ionization conditions)	stabilization of the dimeric form of TNFα (TNFα trimer; soft ionization conditions)	stoichiometry of binding (TNFα trimer; soft ionization conditions)	reduction of TNFα stimulated neutrophil recruitment into the peritoneal cavity ([1]; 30 mg/kg p.o. 30 minutes before hTNFα 0.03 μg/kg i.p.) [%]	reduction of TNFα stimulated neutrophil recruitment into the peritoneal cavity ([1]; 100 mg/kg p.o. 30 minutes before hTNFα 0.03 μg/kg i.p.) [%]	off-rate from m-TNFα (m-TNFα)	cross species monomer subunit exchange (m-TNFα)	binding to TNFα in the presence of TNF-R (TNFα and TNF-R)
Cc1ccc(C)c(Cn2c(C(O)c3ccncc3)nc3ccccc32)c1 (centres unmarked) [Compound (1), [1-(2,5-Dimethylbenzyl)-1H-benzimidazol-2-yl](pyridin-4-yl)methanol]	11.8	stabilization of the trimeric TNFα complex over and above that observed in the absence of DMSO	significantly reduced	not observed to bind	no evidence for stabilization	one molecule of the compound of formula (1) per TNFα trimer	49	79	measurable off-rate	did not prevent monomer subunit exchange	binds to TNFα even in the presence of TNF-R
Cc1ccc(C)c(Cn2c(C(O)c3ccncc3)nc3ccc(-c4cnn(C)c4)cc32)c1 (centres unmarked) [Compound (2), [1-(2,5-Dimethylbenzyl)-6-(1-methyl-1H-pyrazol-4-yl)-1H-benzimidazol-2-yl](pyridin-4-yl)methanol]	17.1								no measurable off-rate	no monomer subunit exchange was observed	

From US10705094B2, “TNF receptor signaling modulator assay” (UCB Biopharma SRL, priority 2015, dated 2020)
